Assay [1] concerns the target T1, human 5-HT7B (h5-HT7b) receptors (Homo sapiens, UniProt P34969).
T1 construct: expressed in transfected cells
Description: Competition radioligand binding, h5-HT7b ([3H]5-CT). To be noted: membranes of HEK 293 cells, 2 hr 37° C., read-out: Ki (nM) 5-HT7.

Assay [2] addresses T2, human 5-HT1a receptors (Homo sapiens, UniProt P08908).
T2 construct: expressed in transfected cells; host or cells: CHO K1 cells
T2 sequence (P08908 1-422): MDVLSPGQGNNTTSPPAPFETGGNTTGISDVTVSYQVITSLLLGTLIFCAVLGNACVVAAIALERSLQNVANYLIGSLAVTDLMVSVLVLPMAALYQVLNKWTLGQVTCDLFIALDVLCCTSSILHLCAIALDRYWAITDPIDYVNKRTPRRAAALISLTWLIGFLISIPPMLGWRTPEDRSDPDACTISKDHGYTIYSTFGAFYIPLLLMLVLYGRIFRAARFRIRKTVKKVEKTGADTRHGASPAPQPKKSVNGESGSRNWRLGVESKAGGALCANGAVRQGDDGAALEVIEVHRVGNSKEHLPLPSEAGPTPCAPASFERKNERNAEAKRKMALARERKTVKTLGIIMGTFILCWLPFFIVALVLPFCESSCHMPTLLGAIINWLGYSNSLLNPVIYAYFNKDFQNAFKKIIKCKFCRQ
Description: Competition radioligand binding, h5-HT1a ([3H]5-CT). Conditions: membranes of CHO K1 cells, 1 hr RT.

In assay [3] the target is T3, human 5-HT6 (h5-HT6) receptors (Homo sapiens, UniProt P50406).
T3 construct: purchased Receptor Biology, Inc. (Beltsville, Md.); host or cells: HEK-293 cells
Description: Competition radioligand binding, h5-HT6 ([3H]LSD). To be noted: membranes of HEK-293 cells, 1 hr RT.

The target in assay [4] is human D2S dopamine (hD2S-DA) receptors (Homo sapiens, UniProt P14416). Description: Competition radioligand binding, hD2s DA ([3H]Spiperone).
Description: (§1) Cell pellets were homogenized in approximately 50 mL of homogenization buffer (buffer A) containing: 50 mM Tris (pH 7.4), 2 mM EGTA, 0.32 M sucrose, 10 μM PMSF, 1 μg/mL leupeptin, 5 μg/mL Pepstatin A, and 5 μg/mL aprotinin using an UltraTurax homogenizer (Tekmar Company, Cincinnati, Ohio) at 80% maximum setting three times for 10 sec. Cell pellets were centrifuged at 4° C. at 1,500×g for 10 min in a Beckman GS-6R centrifuge. Pellets were resuspended in buffer A, homogenized and centrifuged as described above. Pooled supernatants were transferred to centrifuge bottles and centrifuged at 4° C. at 20,000×g for 30 min in a Beckman J2-HS centrifuge. Cell pellets were resuspended in buffer A and were centrifuged at 4° C. at 20,000×g for 30 min. Cell pellets were resuspended in buffer A and stored at −70° C. in aliquots of 2.5 mg/mL total membrane protein. Total membrane protein was assessed utilizing a BCA kit (Pierce; Rockford, Ill.).
(§2) Filters were washed three times with ice-cold phosphate-buffered saline (PBS) wash buffer containing 50 mM NaPO4 (pH 7.4), 0.9% NaCl, 2 mM MgCl2 and 0.02% NaN3. The filters were then counted using liquid scintillation in a Packard Topcount scintillation counter.
(§3) Data Analysis: Radioligand binding experiments were analyzed with Prism™ (GraphPad, San Diego, Calif.), a computer graphics and statistics program. IC50 values and Hill slopes for compounds were generated by nonlinear regression using Prism™.
Assay [5] deals with human 5-HT2a receptors (Homo sapiens, UniProt P28223). Description: Competition radioligand binding, h5-HT2a ([3H]Ketanserin).
Description: The 5-HT receptor binding properties of the compounds are identified by competitive radioligand binding assays wherein membranes prepared from transfected cells expressing the 5-HT receptor subtype of interest. “Binding constants” refers herein to Ki values measured by inhibition of the binding of radiolabelled ligands that are selective for the 5-HT receptor type being studied.
as §1, §2, §3
[6] abbreviates: read-out: Ki (nM) D2, membranes of A9 L cells, [3H]Spiperone, 2 hr RT.
Setting [7] is: read-out: Ki (nM) 5-HT2A, membranes of CHO K1 cells, [3H]Ketanserin, 1 hr 37° C.

Read-outs that look alike come from different tables or passages of the source.

Chain of human D2S dopamine (hD2S-DA) receptors (P14416 1-414 isoform P14416-2): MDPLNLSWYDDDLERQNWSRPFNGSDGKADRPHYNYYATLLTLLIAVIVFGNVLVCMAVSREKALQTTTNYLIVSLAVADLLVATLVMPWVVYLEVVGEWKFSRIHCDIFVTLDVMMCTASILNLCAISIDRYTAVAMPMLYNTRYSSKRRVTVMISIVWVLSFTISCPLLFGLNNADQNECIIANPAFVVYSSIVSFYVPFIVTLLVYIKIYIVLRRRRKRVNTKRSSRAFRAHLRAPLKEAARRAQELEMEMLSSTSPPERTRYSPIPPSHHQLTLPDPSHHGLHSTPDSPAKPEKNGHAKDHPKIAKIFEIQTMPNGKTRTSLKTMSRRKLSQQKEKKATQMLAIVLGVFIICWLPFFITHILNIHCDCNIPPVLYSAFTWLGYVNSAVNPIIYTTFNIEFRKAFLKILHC
T3 sequence (P50406 whole entry): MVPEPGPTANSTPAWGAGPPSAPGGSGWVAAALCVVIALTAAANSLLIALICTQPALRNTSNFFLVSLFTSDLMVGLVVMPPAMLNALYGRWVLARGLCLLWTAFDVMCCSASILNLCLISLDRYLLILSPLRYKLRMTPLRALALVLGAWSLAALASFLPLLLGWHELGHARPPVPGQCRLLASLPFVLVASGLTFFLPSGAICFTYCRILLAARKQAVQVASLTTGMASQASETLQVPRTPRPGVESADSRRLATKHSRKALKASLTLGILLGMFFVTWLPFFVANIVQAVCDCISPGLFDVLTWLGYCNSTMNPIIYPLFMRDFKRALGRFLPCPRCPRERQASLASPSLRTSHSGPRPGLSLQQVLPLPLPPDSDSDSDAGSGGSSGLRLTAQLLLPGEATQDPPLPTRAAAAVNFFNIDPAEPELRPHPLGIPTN
Chain of human 5-HT2a receptors (P28223 whole entry): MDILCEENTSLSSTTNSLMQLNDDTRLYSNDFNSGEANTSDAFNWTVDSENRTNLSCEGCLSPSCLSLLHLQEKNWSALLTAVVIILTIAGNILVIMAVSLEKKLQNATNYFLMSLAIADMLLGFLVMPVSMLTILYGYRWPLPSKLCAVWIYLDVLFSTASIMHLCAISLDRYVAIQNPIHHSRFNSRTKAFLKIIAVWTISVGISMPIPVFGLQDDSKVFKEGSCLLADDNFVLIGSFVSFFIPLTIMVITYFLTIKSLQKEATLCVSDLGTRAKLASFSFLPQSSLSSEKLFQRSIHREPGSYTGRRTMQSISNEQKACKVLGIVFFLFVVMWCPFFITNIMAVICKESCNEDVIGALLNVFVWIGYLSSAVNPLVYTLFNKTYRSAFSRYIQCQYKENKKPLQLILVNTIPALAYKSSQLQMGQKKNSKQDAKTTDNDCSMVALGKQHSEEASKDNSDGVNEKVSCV
T1 sequence (P34969 1-432 limits assumed): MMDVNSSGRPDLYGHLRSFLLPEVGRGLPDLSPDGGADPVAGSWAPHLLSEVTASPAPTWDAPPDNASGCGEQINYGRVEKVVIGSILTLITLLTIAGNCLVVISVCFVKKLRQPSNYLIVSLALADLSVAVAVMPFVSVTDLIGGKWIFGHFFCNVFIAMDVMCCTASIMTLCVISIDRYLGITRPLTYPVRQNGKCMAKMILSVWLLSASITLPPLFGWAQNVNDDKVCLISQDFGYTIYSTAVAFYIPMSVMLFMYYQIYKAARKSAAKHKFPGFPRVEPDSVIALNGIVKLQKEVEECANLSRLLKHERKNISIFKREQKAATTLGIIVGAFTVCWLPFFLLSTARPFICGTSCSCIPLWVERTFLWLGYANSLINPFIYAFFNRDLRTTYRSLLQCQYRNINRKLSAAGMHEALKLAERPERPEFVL

In general, Ki refers to the equilibrium dissociation constant of an inhibitor or competing ligand from its target. On to `Cc1ccc(CN(CC[C@@H]2CCCN2C)Cc2ccccc2)cc1` [Example 22], for which the inhibition constant (Ki) in assay [1] is 8.3 nM; in assay [2] it was greater than 4000 nM; in assay [3] it was 39 nM; in assay [4], 220 nM; in assay [5] it was 44 nM.

As to `CN1CCCC1CCN(Cc1ccccc1)Cc1c(Cl)cccc1Cl` (centres unmarked) [Example 23], the Ki in assay [1] was 28 nM; in assay [2], greater than 4000 nM; in assay [3] it was 47 nM; in assay [4], 160 nM; in assay [5], 16 nM.

For `Cc1ccc(C)c(CN(CCC2CCCN2C)Cc2ccccc2)c1` (centres unmarked) [Example 24], the inhibition constant Ki is 31 nM in assay [1]; greater than 4000 nM in assay [2]; 72 nM in assay [3]; 410 nM in assay [4]; 20 nM in assay [5].

On to `CN1CCCC1CCN(Cc1ccccc1)Cc1cccc2ccccc12` (centres unmarked) [Example 25], for which the Ki is 45 nM in assay [1]; greater than 4000 nM in assay [2]; 99 nM in assay [3]; 570 nM in assay [4]; 87 nM in assay [5].

`CCc1ccc(CN(CCC2CCCN2C)Cc2ccccc2)cc1` (centres unmarked) [Example 28]: the inhibition constant (Ki) is 19 nM in assay [1]; greater than 4000 nM in assay [2]; 91 nM in assay [3]; 270 nM in assay [4]; 73 nM in assay [5].

For `CN1CCCC1CCN(Cc1ccccc1)Cc1cccc(O)c1` (centres unmarked) [Example 29], the Ki was 23 nM in assay [1]; greater than 4000 nM in assay [2]; 33 nM in assay [3]; 1010 nM in assay [4]; 69 nM in assay [5].

Consider `Cc1cccc(CN(CCC2CCCN2C)Cc2ccccc2)c1` (centres unmarked) [Example 30], for which the inhibition constant (Ki) in assay [1] is 20 nM; in assay [2], greater than 4000 nM; in assay [3], 53 nM; in assay [4], 660 nM; in assay [5], 60 nM.

Consider `COc1cccc(CN(CCC2CCCN2C)Cc2ccccc2)c1` (centres unmarked) [Example 33], for which the Ki in assay [1] was 56 nM; in assay [2] it was greater than 4000 nM; in assay [3] it was 35 nM; in assay [4], 780 nM; in assay [5], 51 nM.

Take `CN1CCC[C@H]1CCN(Cc1cccc(O)c1)Cc1ccc2ccccc2c1` [Example 34]: the Ki was found to be 8.6 nM in assay [1]; 825 nM in assay [2]; 315 nM in assay [3]; 1750 nM in assay [4]; 61 nM in assay [5].

On to `Cc1cc(CN(CC[C@@H]2CCCN2C)Cc2cccc(O)c2)cc(C)c1O` [Example 35], for which the Ki in assay [1] was 17 nM; in assay [2], greater than 4000 nM; in assay [3] it was 2710 nM; in assay [4], greater than 2500 nM; in assay [5], 3470 nM.

Consider `COc1ccc(CN(CC[C@@H]2CCCN2C)Cc2cccc(O)c2)cc1` [Example 36], for which the inhibitory constant (Ki) in assay [1] was 49 nM; in assay [2], greater than 4000 nM; in assay [3] it was 1580 nM; in assay [4], 2530 nM; in assay [5], 200 nM.

For the compound `CN1CCC[C@H]1CCN(Cc1ccc(C(C)(C)C)cc1)Cc1cccc(O)c1` [Example 37], the inhibition constant (Ki) is 66 nM in assay [1]; greater than 4000 nM in assay [2]; 375 nM in assay [3]; 2300 nM in assay [4]; 160 nM in assay [5].

In the case of `CN1CCC[C@H]1CCN(Cc1ccc(Cl)cc1)Cc1ccc(O)cc1Cl` [Example 39], the Ki in assay [1] was 0.91 nM; in assay [2], 3920 nM; in assay [3], 49 nM; in assay [4], 420 nM; in assay [5], 85 nM.

Consider `CSc1ccc(CN(CC[C@@H]2CCCN2C)Cc2ccc(Cl)cc2)cc1` [Example 40], for which the Ki in assay [1] was 6.5 nM; in assay [2], greater than 4000 nM; in assay [3], 132 nM; in assay [4] it was 1110 nM; in assay [5], 23 nM.

Regarding `COc1cccc(CN(CC[C@@H]2CCCN2C)Cc2ccc(Cl)cc2)c1` [Example 41], the Ki in assay [1] is 6.6 nM; in assay [2] it was greater than 4000 nM; in assay [3], 83 nM; in assay [4], 1480 nM; in assay [5] it was 39 nM.

Turning to `Cc1cc(CN(CC[C@@H]2CCCN2C)Cc2ccc(Cl)cc2)oc1C` [Example 42], the Ki in assay [1] is 21 nM; in assay [2] it was greater than 4000 nM; in assay [3], 54 nM; in assay [4], greater than 2500 nM; in assay [5], 88 nM.

As to `CN1CCC[C@H]1CCN(Cc1ccc(Cl)cc1)Cc1ccc2c(c1)Cc1ccccc1-2` [Example 45], the Ki is 12 nM in assay [1]; greater than 4000 nM in assay [2]; 38 nM in assay [3]; 250 nM in assay [4]; 27 nM in assay [5].

In the case of `CC(C)c1ccc(CN(CC[C@@H]2CCCN2C)Cc2ccc(Cl)cc2)cc1` [Example 46], the inhibitory constant (Ki) in assay [1] was found to be 80 nM; in assay [2] it was 3850 nM; in assay [3] it was 350 nM; in assay [4], 1110 nM; in assay [5], 42 nM.

Regarding `CN1CCC[C@H]1CCN(Cc1ccc(Cl)cc1)Cc1ccc(O)c(Cl)c1` [Example 47], the inhibitory constant (Ki) in assay [1] is 2.7 nM; in assay [2], greater than 4000 nM; in assay [3] it was 110 nM; in assay [4] it was 1010 nM; in assay [5] it was 180 nM.

With `Cc1cc(CN(CC[C@@H]2CCCN2C)Cc2ccc(Cl)cc2)cc(C)c1O` [Example 48], the Ki in assay [1] was 4.2 nM; in assay [2], 3070 nM; in assay [3], 71 nM; in assay [4], greater than 2500 nM; in assay [5], 233 nM.

Consider `CN1CCC[C@H]1CCN(Cc1ccc(O)cc1)Cc1ccc(Cl)cc1` [Example 49], for which the inhibition constant (Ki) in assay [1] is 1.9 nM; in assay [2], greater than 4000 nM; in assay [3] it was 177 nM; in assay [4], 1310 nM; in assay [5] it was 148 nM.

Turning to `COc1cc(CN(CC[C@@H]2CCCN2C)Cc2ccc(Cl)cc2)ccc1O` [Example 50], the inhibition constant (Ki) in assay [1] is 3.2 nM; in assay [2], greater than 4000 nM; in assay [3], 280 nM; in assay [4] it was greater than 2500 nM; in assay [5] it was 180 nM.

Regarding `Cc1c(CN(CC[C@@H]2CCCN2C)Cc2ccc(Cl)cc2)sc2ccccc12` [Example 52], the inhibition constant Ki in assay [1] is 27 nM; in assay [2] it was greater than 4000 nM; in assay [3], 310 nM; in assay [4], 1110 nM; in assay [5], 76 nM.

For the compound `CCN1CCC[C@H]1CCN(Cc1ccc(C)cc1)Cc1ccc(C)cc1` [Example 54, (S)-Di-(4-methylbenzyl)aminoethyl-N-ethylpyrrolidine], the Ki was 63 nM in assay [1]; 610 nM in assay [2]; 300 nM in assay [3]; 380 nM in assay [4] (setting [6]); 56 nM in assay [5] (setting [7]).

Take “(S)-(3-Hydroxybenzyl)(4-chlorobenzyl)-2-aminoethyl-N-methylpyrrolidine [Example 19]”: the Ki in assay [1] is 2.7 nM; in assay [2], greater than 4000 nM; in assay [3] it was 210 nM; in assay [4] (setting [6]), 1580 nM; in assay [5] (setting [7]), 74 nM.

Values taken from patent US20060063932A1, “Aminoalkylpyrrolidine serotonin receptor ligands and compositions, their pharmaceutical uses, and methods for their synthesis” (priority 2000, published 2006).
